{"source": "patent US10111950B2", "about": "“Modified glycolipids and methods of making and using the same” (Vaccinex, Inc., priority 2013, dated 2018)", "key": {"[1]": {"target": "T1, plate bound mCD1d (Mus musculus, UniProt P11609)", "T1 construct": "recombinant soluble murine CD1d (mCD1d) was diluted to 400 μg/ml in PBS pH 7.2", "T1 sequence (P11609 22-305 limits assumed)": "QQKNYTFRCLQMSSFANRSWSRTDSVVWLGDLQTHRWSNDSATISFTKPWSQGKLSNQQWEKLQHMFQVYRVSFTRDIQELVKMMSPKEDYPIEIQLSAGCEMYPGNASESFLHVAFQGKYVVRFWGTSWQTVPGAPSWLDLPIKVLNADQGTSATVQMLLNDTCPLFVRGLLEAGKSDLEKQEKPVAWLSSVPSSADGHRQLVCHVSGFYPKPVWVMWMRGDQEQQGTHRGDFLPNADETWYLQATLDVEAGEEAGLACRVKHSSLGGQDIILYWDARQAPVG", "T1 sequence (P01887 21-119 partner)": "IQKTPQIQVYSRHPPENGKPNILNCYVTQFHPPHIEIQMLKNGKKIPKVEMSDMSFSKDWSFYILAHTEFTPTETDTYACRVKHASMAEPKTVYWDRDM", "test": "Ligand binding to plate bound mCD1d with and without UV activation, ELISA using mAb L363", "set-up": "species or system murine", "conditions": "for dissociation of CD1d:glycolipid complex after 3 days (L363 ELISA): 3 days in PBS+0.05% Triton X-100 at 25° C.; for CD1d/glycolipid complex formation detected by mAb L363 ELISA: plate bound mCD1d 10 μg/ml, glycolipid 5 μM", "protocol": "(§1) The ligand binding affinity of plate bound mCD1d was measured by ELISA using mAb L363 to detect murine CD1d/αGalCer complexes. ELISA plates were coated with mCD1d (10 μg/ml, 30 μl/well) overnight at 4° C. in PBS pH 8.2. Supernatant was then removed along with any unbound protein. Glycolipids (5 μM, 30 μl/well) were loaded and allowed to incubate overnight at 25° C. Supernatant was again removed and the complexes were washed three times with PBS to remove any unbound glycolipid. For those complexes that underwent UV activation, UV crosslinking was performed in solution (30 μl/well PBS) and at a fixed wavelength of 365 nm from a UV lamp (RAD-FREE long wave UV lamp, Schleicher & Schuell). The UV lamp was placed one inch from the sample and the sample was allowed to sit on ice for 1 hr."}, "[2]": {"tested_on": "iNKT hybridoma DN3A4-1.2 with plate bound mCD1d", "test": "Plate bound mCD1d:glycolipid complexes with and without UV activation, iNKT DN3A4-1.2 hybridoma stimulation assay (IL-2 ELISA)", "type": "cell-based, murine", "conditions": "for iNKT stimulation post-dissociation (IL-2 ELISA): after 3 days dissociation, non-crosslinked mCD1d complexes (UV state not stated for 7DW8-5)", "protocol": "(§2) The ligand binding affinity of plate bound mCD1d was detected by iNKT DN3A4-1.2 hybridoma stimulation assay. mCD1d (10 μg/ml) was loaded with glycolipids (5 μM) overnight at 25° C. ELISA plates were coated with mCD1d:GC complexes (2.5 μg/ml, 30 μl/well) for 12-18 hours at 4° C. in PBS pH 8.2. Supernatant was then removed and the complexes were washed three times with PBS to remove any unbound glycolipid and protein. For those complexes that underwent UV activation, UV crosslinking was performed in solution (30 μl/well PBS) and at a fixed wavelength of 365 nm from a UV lamp (RAD-FREE long wave UV lamp, Schleicher & Schuell). The UV lamp was placed one inch from the sample and the sample was allowed to sit on ice for 1 hr. Supernatant was then removed and the complexes were washed three times with PBS to remove any unbound glycolipid and protein."}, "[3]": {"tested_on": "mCD1d.CEA fusion protein", "test": "Direct comparison of DB12-8 and 7DW8-5 complexes with mCD1d.CEA fusion protein, L363 ELISA", "type": "binding, murine", "protocol": "as §1, §2\nmCD1d.CEA (10 μg/ml), a recombinant mCD1d protein genetically fused with a single chain Fv antibody fragment specific for the tumor associated antigen CEA, was loaded with glycolipids (5 μM) overnight at 25° C. in PBS pH8.2 with 0.05% tyloxapol. The mCD1d.CEA:GC complexes (10 μg/ml, 30 μl/well) were coated onto wells of high binding ELISA 96 well plates overnight at 4° C. UV exposure and incubation to allow dissociation over 3 days were performed as described in Examples 6 and 7.\nA scale up of the complex formation in solution was performed using a 10-fold increased concentration of protein and glycolipid and the results are shown in FIG. 9C-9D. mCD1d.CEA (100 μg/ml) was loaded with DB12-8 (50 μM respectively) overnight at 25° C. in PBS pH8.2 with 0.05% tyloxapol. DB12-8:mCD1d.CEA complexes were diluted down to 10 μg/ml and were coated onto the high binding ELISA plates (30 μl/well), overnight at 4° C. UV exposure and incubation to allow dissociation over 3 days were performed as described in Examples 6 and 7."}, "[4]": {"tested_on": "iNKT hybridoma DN3A4-1.2 with human CD1d transfected HeLa cells", "test": "iNKT hybridoma stimulation (IL-2 secretion) with hCD1d expressing HeLa cells", "type": "cell-based", "conditions": "BPGC 5 to 0.01 μg/ml for 3 hrs, hybridoma 18 hours", "protocol": "The activated natural killer cells were again calculated based on those secreting IL-2. Specifically, plate bound human CD1d transfected HeLa cells (10,000 cells in 100 μl medium) were plated in a 96 well tissue culture plate and allowed to adhere to the plates for 30 minutes at 37° C. Adherent HeLa cells were treated with varying BPGC concentrations ranging between 5 and 0.01 μg/ml in 100 μl for 3 hrs at 37° C. Glycolipid not taken up by cells was removed by washing with medium. To detect the BPGC presentation by CD1d, iNKT hybridoma DN3A4-1.2 (5000 cells in 100 μl volume) was added and the stimulation was detected by the level of IL-2 secreted in the supernatant following incubation at 37° C. for 18 hours."}, "[5]": {"target": "T2, soluble recombinant mCD1d (Mus musculus, UniProt P11609)", "T2 construct": "A soluble recombinant mCD1d protein (10 μg/ml) was loaded with glycolipids", "T2 sequence (P11609 22-305 limits assumed)": "T1 sequence (P11609 22-305 limits assumed)", "T2 sequence (P01887 21-119 partner)": "T1 sequence (P01887 21-119 partner)", "test": "Direct comparison of DB12-8 and 7DW8-5 complexes with soluble recombinant mCD1d, L363 ELISA", "type": "binding, murine", "protocol": "as §1, §2\nA soluble recombinant mCD1d protein (10 μg/ml) was loaded with glycolipids (5 μM) overnight at 25° C. in PBS pH8.2 with 0.05% tyloxapol. The mCD1d:GC complexes (10 μg/ml, 30 μl/well) were coated onto the high binding ELISA plates, overnight at 4° C. UV exposure and incubation to allow dissociation over 3 days was performed as described in Examples 6 and 7."}, "[6]": {"tested_on": "iNKT cells", "conditions": "repeated stimulation; cited from earlier work"}}}
{"smiles": "CCCCCCCCCCCCCC[C@@H](O)[C@@H](O)[C@H](COC1OC(CO)C(O)C(O)C1O)NC(=O)CCCCCCCCCCOCc1cccc(C(=O)c2ccccc2)c1", "note": "(stereo partly drawn) [DB12-8]", "values": [{"measurement": "dissociation of CD1d:glycolipid complex after 3 days (L363 ELISA)", "setting": "[1]; UV irradiated 365 nm 1 hr", "value": "no significant dissociation"}, {"measurement": "CD1d/glycolipid complex formation detected by mAb L363 ELISA", "setting": "[1]", "value": "highest levels of immunoreactive complex formation"}, {"measurement": "iNKT hybridoma stimulation following UV crosslinking (IL-2 ELISA)", "setting": "[2]; UV crosslinked 365 nm 1 hr", "value": "stimulated iNKT hybridoma better than other glycolipids"}, {"measurement": "iNKT stimulation post-dissociation (IL-2 ELISA)", "setting": "[2]", "value": "some, albeit reduced, iNKT stimulation even after dissociation"}, {"measurement": "binding to CD1d", "setting": "[2]; following UV crosslinking", "value": "bound efficiently to CD1d"}, {"measurement": "reduction in OD450 after 3 days", "setting": "[3]; 10-fold scale up (mCD1d.CEA 100 μg/ml, DB12-8 50 μM), UV-crosslinked samples", "value": "no detectable reduction in OD450"}, {"measurement": "decrease in OD450 after 3 days incubation", "setting": "[3]; 10-fold scale up (mCD1d.CEA 100 μg/ml, DB12-8 50 μM), non-crosslinked complexes", "value": "~75", "unit": "%"}, {"measurement": "dissociation after 3 days (L363 ELISA signal)", "setting": "[3]; UV exposure at 365 nm", "value": "no dissociation was observed"}, {"measurement": "affinity to CD1d, complex detected by L363 ELISA", "setting": "[3]; mCD1d.CEA 10 μg/ml, glycolipid 5 μM", "value": "showed affinity to CD1d"}, {"measurement": "L363 ELISA signal following UV-crosslinking", "setting": "[3]; mCD1d.CEA complex", "value": "increases significantly"}, {"measurement": "dissociation after 3 days (L363 ELISA signal)", "setting": "[3]; non UV-crosslinked state", "value": "almost completely dissociated"}, {"measurement": "iNKT stimulation, level of IL-2 secreted in the supernatant", "setting": "[4]", "value": "stimulatory toward iNKT cells"}, {"measurement": "dissociation after 3 days (L363 ELISA signal)", "setting": "[5]; UV exposure at 365 nm", "value": "no dissociation was observed"}, {"measurement": "affinity to CD1d, complex detected by L363 ELISA", "setting": "[5]; mCD1d 10 μg/ml, glycolipid 5 μM", "value": "showed affinity to CD1d"}, {"measurement": "dissociation after 3 days (L363 ELISA signal)", "setting": "[5]; non UV-crosslinked state", "value": "dissociated almost completely"}]}
{"smiles": "CCCCCCCCCCCCCC[C@@H](O)[C@@H](O)[C@H](COC1OC(CO)C(O)C(O)C1O)NC(=O)CCCCCCCCCCCOCc1cccc(C(=O)c2ccccc2)c1", "note": "(stereo partly drawn) [DB12-9]", "values": [{"measurement": "dissociation of CD1d:glycolipid complex after 3 days (L363 ELISA)", "setting": "[1]; UV irradiated 365 nm 1 hr", "value": "no significant dissociation"}, {"measurement": "CD1d/glycolipid complex formation detected by mAb L363 ELISA", "setting": "[1]", "value": "highest levels of immunoreactive complex formation"}, {"measurement": "iNKT stimulation post-dissociation (IL-2 ELISA)", "setting": "[2]", "value": "some, albeit reduced, iNKT stimulation even after dissociation"}]}
{"smiles": "CCCCCCCCCCCCCCCCCCCCCCCCCC(=O)N[C@@H](CO[C@H]1O[C@H](CO)[C@H](O)[C@H](O)[C@H]1O)[C@H](O)[C@H](O)CCCCCCCCCCCCCC", "note": "[KRN7000, (2S,3S,4R)-1-O-(α-D-galactopyranosyl)-N-hexacosanoyl-2-amino-1,3,4-octadecanetriol, reference compound]", "values": [{"measurement": "dissociation of CD1d:glycolipid complex after 3 days (L363 ELISA)", "setting": "[1]; UV irradiated 365 nm 1 hr", "value": "dissociated after 3 days"}, {"measurement": "dissociation of CD1d:glycolipid complex after 3 days (L363 ELISA)", "setting": "[1]; not UV irradiated", "value": "dissociated after 3 days"}]}
{"smiles": "CCCCCCCCCCCCCCCCCCCCCCCCCC(=O)N[C@@H](CO[C@H]1O[C@H](CO)[C@H](O)[C@H](O)[C@H]1O)[C@H](O)[C@H](O)CCCCCCCCCCCCCC", "note": "[αGalCer, α-galactosylceramide]", "values": [{"measurement": "iNKT cell response to stimulation with free αGalCer", "setting": "[6]", "value": "results in iNKT cell anergy"}]}
